From patent US20090298903A1, “USE OF TETRAMIC ACID DERIVATIVES FOR INSECT CONTROL” (priority 2006, published 2009) come the findings set out here.

Format in all cases: in vivo
In one assay the test system is Dasineura mali. The assay can be described thus: Example 19 a): apple trees against Dasineura mali. The note with it: 59 d after treatment; larvae, apple twigs; Pirimicarb (50 WG) 125, (I-4) (100 OD) 72 g a.s./ha/m crown level. How it is done:
Apple trees cv. “Elan” which are approximately 16 years old are treated, in 3 replications, against the Dasineura mali. Here, the active substance Example (I-4) (100 OD) is tested at the specified application rate against the commercial standard and Pirimicarb (50 WG) at the specified application rate. The application is carried out with a spray diffuser. Here, the treatment is effected with a water application rate of 1000 l/ha/m crown level.
The test is evaluated 59 days after the treatment by scoring the destruction of the larvae on the basis of the adults present on the twigs with the aid of the Abbott method.

The next assay has as its system Carpocapsa pomonella. The assay can be described thus: Example 29: apple trees against Carpocapsa pomonella, fruit damage. The note with it: application rate printed as g a.s./ha: Chlorpyrifos-methyl (25 WP) 0.1, (I-4) (240 SC + 0.1% Steffes Mero) 0.012. How it is done:
Approx. 15-year-old apple trees cv. “Golden Delicious” are treated, in four replications, against Carpocapsa pomonella. The application is carried out with an atomizer. Here, the active substance Example (I-4) (240 SC) in a tank mix together with 0.1% a.s. of the adjuvant Steffes Mero (rapeseed oil methyl ester) (733 1R) and the commercial standard Chlorpyrifos-methyl (25 WP) are tested at the specified application rates. The water application rate is 1052 l/ha. Two applications are carried out at an interval of 13 days.
The test is evaluated 32 days after treatment 2 by scoring the fruit damage with the aid of the Abbott formula.

The subject of another assay is Thrips tabaci. As to the kind of experiment: Example 6: onions against Thrips tabaci. As to conditions: population on leaves. How it is done: Plots 15 m^2 in size which are planted with onions are treated, in two replications, against Thrips tabaci. The application is effected with a knapsack sprayer which is operated with pressurized air. Here, the active substances Example (I-4), in a tank mix together with 0.2% a.s. rapeseed oil methyl ester (500 EW) and the commercial standard dimethoate and (380 EC), are tested at the specified application rates in a tank mix with 0.9% a.s. E-actipron (900 EC). The water application rate is 300 l/ha.
The test was evaluated 43 and 62 days after the treatment by scoring the destruction rate of the population on the leaves.

The next assay relates to Rhagoletis cerasi. The assay can be described thus: Example 21: cherry trees against Rhagoletis cerasi. The note with it: 23 d after treatment 2, larvae on fruits, Dimethoate (400 EC) 200, (I-4) (150 OD) 75 g a.s./ha/m crown level. How it is done:
Cherry trees cv. “Van” which are approximately 26 years old are treated, in three replications, against Rhagoletis cerasi. The application is carried out with an atomizer. Here, the active substance Example (I-4) (150 OD) and the commercial standard dimethoate (400 EC) are applied at the specified application rates. Two applications are carried out at an interval of 6 days with a water application rate of 500 l/ha/m crown level.
The test is evaluated 23 days after treatment 2 by scoring the destruction rates of the animals (larvae) on the fruits with the aid of the Abbott formula.

For the compound `Cc1nc(N(C)C)nc(OC(=O)N(C)C)c1C` [Pirimicarb], the “Efficacy (%) Abbott 59 d” value in the assay with Dasineura mali was 0%.
Turning to `COP(=S)(OC)Oc1nc(Cl)c(Cl)cc1Cl` [Chlorpyrifos-methyl], the “Efficacy (% Abbott) 32 d after treatment 2” value in the assay on Carpocapsa pomonella came to 66.7 % Abbott.
Consider `CNC(=O)CSP(=S)(OC)OC` [Dimethoate, dimethoate], for which the “Efficacy (% Abbott) 43 d” value in the assay with Thrips tabaci (43 d after treatment, Dimethoate (380 EC + 0.9% E-actipron) 380, (I-4) (+ 0.2% rapeseed oil methyl ester) 96 g a.s./ha) worked out at 64.5 % Abbott. For the same compound, the “Efficacy (% Abbott) 62 d” value with Thrips tabaci (62 d after treatment, Dimethoate 380, (I-4) 96 g a.s./ha) worked out at 74.8 % Abbott. For the same compound, the “Efficacy (% Abbott) 23 d” value in the assay with Rhagoletis cerasi was 100 % Abbott.
